Laboratory results taken from patent US9108944B2, “Androgen receptor modulators and uses thereof” (ARAGON PHARMACEUTICALS, INC., priority 2010, dated 2015).

Key:
AR-VP16 [1] = target: T1, AR-VP16 (Homo sapiens, UniProt P10275); test: AR-VP16 DNA Binding Assay, antagonist mode (HepG2 cells, 0.1 nM R1881); type: cell-based
T1 sequence (P10275 560-920 limits assumed): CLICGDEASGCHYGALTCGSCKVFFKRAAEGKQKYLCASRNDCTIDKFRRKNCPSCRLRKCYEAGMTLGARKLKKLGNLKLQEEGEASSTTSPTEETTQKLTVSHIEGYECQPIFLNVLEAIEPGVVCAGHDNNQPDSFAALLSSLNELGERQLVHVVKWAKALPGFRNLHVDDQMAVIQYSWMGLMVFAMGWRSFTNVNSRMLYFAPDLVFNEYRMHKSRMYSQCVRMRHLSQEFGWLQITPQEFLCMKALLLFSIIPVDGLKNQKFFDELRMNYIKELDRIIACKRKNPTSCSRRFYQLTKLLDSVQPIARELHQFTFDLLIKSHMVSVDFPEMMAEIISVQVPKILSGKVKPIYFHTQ
Method in brief: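 HepG2 cells transiently transfected with AR-VP16 (Lipofectin), incubated overnight, then treated with compound in RPMI with charcoal-stripped serum. Antagonist mode adds R1881 at 0.1 nM final. Cells lysed after 48 h incubation for read-out.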

AR-VP16 [2] = target: T1, AR-VP16; test: AR-VP16 DNA Binding Assay, agonist mode (HepG2 cells); type: cell-based; settings: Emax >20x DMSO control = agonist

Cc1ccc(-c2ccc(N3C(=S)N(c4cnc(C#N)c(C)c4)C(=O)C34CCC4)cc2)o1 [Compound 7, 3-Methyl-5-(5-(4-(5-methylfuran-2-yl)phenyl)-8-oxo-6-thioxo-5,7-diazaspiro[3.4]octan-7-yl)picolinonitrile]
IC50 (AR-VP16 [1]): < 1000 nM | ARVP16 DNA Binding Assay (Agonist mode): Agonist? (AR-VP16 [2]): No (Agonist defined as a compound whose Emax in the ARVP16 DNA Binding Assay (Agonist mode) is >20x DMSO control)

CCOC(=O)c1cc(N2C(=S)N(c3cnc(C#N)c(C(F)(F)F)c3)C(=O)C23CCC3)ccc1F [Compound 8, Ethyl 5-(7-(6-cyano-5-(trifluoromethyl)pyridin-3-yl)-8-oxo-6-thioxo-5,7-diazaspiro[3.4]octan-5-yl)-2-fluorobenzoate]
IC50 (AR-VP16 [1]): > 1000 nM | ARVP16 DNA Binding Assay (Agonist mode): Agonist? (AR-VP16 [2]): No (Agonist defined as a compound whose Emax in the ARVP16 DNA Binding Assay (Agonist mode) is >20x DMSO control)

N#Cc1ccccc1N1C(=S)N(c2cnc(C#N)c(C(F)(F)F)c2)C(=O)C12CCC2 [Compound 10, 5-(5-(2-Cyanophenyl)-8-oxo-6-thioxo-5,7-diazaspiro[3.4]octan-7-yl)-3-(trifluoromethyl)picolinonitrile]
IC50 (AR-VP16 [1]): > 1000 nM | ARVP16 DNA Binding Assay (Agonist mode): Agonist? (AR-VP16 [2]): No (Agonist defined as a compound whose Emax in the ARVP16 DNA Binding Assay (Agonist mode) is >20x DMSO control)

N#Cc1cccc(N2C(=S)N(c3cnc(C#N)c(C(F)(F)F)c3)C(=O)C23CCC3)c1 [Compound 11, 5-(5-(3-Cyanophenyl)-8-oxo-6-thioxo-5,7-diazaspiro[3.4]octan-7-yl)-3-(trifluoromethyl)picolinonitrile]
IC50 (AR-VP16 [1]): < 1000 nM | ARVP16 DNA Binding Assay (Agonist mode): Agonist? (AR-VP16 [2]): No (Agonist defined as a compound whose Emax in the ARVP16 DNA Binding Assay (Agonist mode) is >20x DMSO control)

N#Cc1ccc(N2C(=S)N(c3cnc(C#N)c(C(F)(F)F)c3)C(=O)C23CCC3)cc1 [Compound 12, 5-(5-(4-Cyanophenyl)-8-oxo-6-thioxo-5,7-diazaspiro[3.4]octan-7-yl)-3-(trifluoromethyl)picolinonitrile]
IC50 (AR-VP16 [1]): < 1000 nM | ARVP16 DNA Binding Assay (Agonist mode): Agonist? (AR-VP16 [2]): No (Agonist defined as a compound whose Emax in the ARVP16 DNA Binding Assay (Agonist mode) is >20x DMSO control)

N#Cc1ncc(N2C(=O)C3(CCC3)N(c3cccc(-c4ccccc4)c3)C2=S)cc1C(F)(F)F [Compound 14, 5-(5-([1,1′-Biphenyl]-3-yl)-8-oxo-6-thioxo-5,7-diazaspiro[3.4]octan-7-yl)-3-(trifluoromethyl)picolinonitrile]
IC50 (AR-VP16 [1]): > 1000 nM | ARVP16 DNA Binding Assay (Agonist mode): Agonist? (AR-VP16 [2]): No (Agonist defined as a compound whose Emax in the ARVP16 DNA Binding Assay (Agonist mode) is >20x DMSO control)

N#Cc1ncc(N2C(=O)C3(CCC3)N(c3ccccc3-c3ccccc3)C2=S)cc1C(F)(F)F [Compound 15, 5-(5-([1,1′-Biphenyl]-2-yl)-8-oxo-6-thioxo-5,7-diazaspiro[3.4]octan-7-yl)-3-(trifluoromethyl)picolinonitrile]
IC50 (AR-VP16 [1]): > 1000 nM | ARVP16 DNA Binding Assay (Agonist mode): Agonist? (AR-VP16 [2]): No (Agonist defined as a compound whose Emax in the ARVP16 DNA Binding Assay (Agonist mode) is >20x DMSO control)

N#Cc1ncc(N2C(=O)C3(CCC3)N(c3ccc(-c4ccccn4)cc3)C2=S)cc1C(F)(F)F [Compound 16, 5-(8-Oxo-5-(4-(pyridin-2-yl)phenyl)-6-thioxo-5,7-diazaspiro[3.4]octan-7-yl)-3-(trifluoromethyl)picolinonitrile]
IC50 (AR-VP16 [1]): < 1000 nM | ARVP16 DNA Binding Assay (Agonist mode): Agonist? (AR-VP16 [2]): No (Agonist defined as a compound whose Emax in the ARVP16 DNA Binding Assay (Agonist mode) is >20x DMSO control)

N#Cc1ncc(N2C(=O)C3(CCC3)N(c3ccc(-c4ccncc4)cc3)C2=S)cc1C(F)(F)F [Compound 18, 5-(8-Oxo-5-(4-(pyridin-4-yl)phenyl)-6-thioxo-5,7-diazaspiro[3.4]octan-7-yl)-3-(trifluoromethyl)picolinonitrile]
IC50 (AR-VP16 [1]): < 1000 nM | ARVP16 DNA Binding Assay (Agonist mode): Agonist? (AR-VP16 [2]): Yes (Agonist defined as a compound whose Emax in the ARVP16 DNA Binding Assay (Agonist mode) is >20x DMSO control)

Cc1ccccc1N1C(=S)N(c2cnc(C#N)c(C(F)(F)F)c2)C(=O)C12CCC2 [Compound 20, 5-(8-Oxo-6-thioxo-5-(o-tolyl)-5,7-diazaspiro[3.4]octan-7-yl)-3-(trifluoromethyl)picolinonitrile]
IC50 (AR-VP16 [1]): < 1000 nM | ARVP16 DNA Binding Assay (Agonist mode): Agonist? (AR-VP16 [2]): No (Agonist defined as a compound whose Emax in the ARVP16 DNA Binding Assay (Agonist mode) is >20x DMSO control)

Cc1ccc(N2C(=S)N(c3cnc(C#N)c(C(F)(F)F)c3)C(=O)C23CCC3)cc1 [Compound 22, 5-(8-Oxo-6-thioxo-5-(p-tolyl)-5,7-diazaspiro[3.4]octan-7-yl)-3-(trifluoromethyl)picolinonitrile]
IC50 (AR-VP16 [1]): < 1000 nM | ARVP16 DNA Binding Assay (Agonist mode): Agonist? (AR-VP16 [2]): No (Agonist defined as a compound whose Emax in the ARVP16 DNA Binding Assay (Agonist mode) is >20x DMSO control)

N#Cc1ncc(N2C(=O)C3(CCC3)N(c3ccccc3Oc3ccccc3)C2=S)cc1C(F)(F)F [Compound 23, 5-(8-Oxo-5-(2-phenoxyphenyl)-6-thioxo-5,7-diazaspiro[3.4]octan-7-yl)-3-(trifluoromethyl)picolinonitrile]
IC50 (AR-VP16 [1]): > 1000 nM | ARVP16 DNA Binding Assay (Agonist mode): Agonist? (AR-VP16 [2]): No (Agonist defined as a compound whose Emax in the ARVP16 DNA Binding Assay (Agonist mode) is >20x DMSO control)

N#Cc1ncc(N2C(=O)C3(CCC3)N(c3cccc(Oc4ccccc4)c3)C2=S)cc1C(F)(F)F [Compound 24, 5-(8-Oxo-5-(3-phenoxyphenyl)-6-thioxo-5,7-diazaspiro[3.4]octan-7-yl)-3-(trifluoromethyl)picolinonitrile]
IC50 (AR-VP16 [1]): > 1000 nM | ARVP16 DNA Binding Assay (Agonist mode): Agonist? (AR-VP16 [2]): No (Agonist defined as a compound whose Emax in the ARVP16 DNA Binding Assay (Agonist mode) is >20x DMSO control)

N#Cc1ncc(N2C(=O)C3(CCC3)N(c3ccc(Oc4ccccc4)cc3)C2=S)cc1C(F)(F)F [Compound 25, 5-(8-Oxo-5-(4-phenoxyphenyl)-6-thioxo-5,7-diazaspiro[3.4]octan-7-yl)-3-(trifluoromethyl)picolinonitrile]
IC50 (AR-VP16 [1]): < 1000 nM | ARVP16 DNA Binding Assay (Agonist mode): Agonist? (AR-VP16 [2]): No (Agonist defined as a compound whose Emax in the ARVP16 DNA Binding Assay (Agonist mode) is >20x DMSO control)

N#Cc1ncc(N2C(=O)C3(CCC3)N(c3ccccc3F)C2=S)cc1C(F)(F)F [Compound 26, 5-(5-(2-Fluorophenyl)-8-oxo-6-thioxo-5,7-diazaspiro[3.4]octan-7-yl)-3-(trifluoromethyl)picolinonitrile]
IC50 (AR-VP16 [1]): < 1000 nM | ARVP16 DNA Binding Assay (Agonist mode): Agonist? (AR-VP16 [2]): Yes (Agonist defined as a compound whose Emax in the ARVP16 DNA Binding Assay (Agonist mode) is >20x DMSO control)

N#Cc1ncc(N2C(=O)C3(CCC3)N(c3cccc(F)c3)C2=S)cc1C(F)(F)F [Compound 27, 5-(5-(3-Fluorophenyl)-8-oxo-6-thioxo-5,7-diazaspiro[3.4]octan-7-yl)-3-(trifluoromethyl)picolinonitrile]
IC50 (AR-VP16 [1]): < 1000 nM | ARVP16 DNA Binding Assay (Agonist mode): Agonist? (AR-VP16 [2]): No (Agonist defined as a compound whose Emax in the ARVP16 DNA Binding Assay (Agonist mode) is >20x DMSO control)

N#Cc1ncc(N2C(=O)C3(CCC3)N(c3ccc(F)cc3)C2=S)cc1C(F)(F)F [Compound 28, 5-(5-(4-Fluorophenyl)-8-oxo-6-thioxo-5,7-diazaspiro[3.4]octan-7-yl)-3-(trifluoromethyl)picolinonitrile]
IC50 (AR-VP16 [1]): < 1000 nM | ARVP16 DNA Binding Assay (Agonist mode): Agonist? (AR-VP16 [2]): No (Agonist defined as a compound whose Emax in the ARVP16 DNA Binding Assay (Agonist mode) is >20x DMSO control)
